From US6632829B2, “Sulfonamides and derivatives thereof that modulate the activity of endothelin” (Texas Biotechnology Corp., priority 1996, dated 2003)

Target: T1, human ETA receptors (Homo sapiens, UniProt P25101)
T1 construct: endogenous in cells; host or cells: TE 671 cells (ATCC HTB 139), membrane preparation
T1 sequence (P25101 21-427): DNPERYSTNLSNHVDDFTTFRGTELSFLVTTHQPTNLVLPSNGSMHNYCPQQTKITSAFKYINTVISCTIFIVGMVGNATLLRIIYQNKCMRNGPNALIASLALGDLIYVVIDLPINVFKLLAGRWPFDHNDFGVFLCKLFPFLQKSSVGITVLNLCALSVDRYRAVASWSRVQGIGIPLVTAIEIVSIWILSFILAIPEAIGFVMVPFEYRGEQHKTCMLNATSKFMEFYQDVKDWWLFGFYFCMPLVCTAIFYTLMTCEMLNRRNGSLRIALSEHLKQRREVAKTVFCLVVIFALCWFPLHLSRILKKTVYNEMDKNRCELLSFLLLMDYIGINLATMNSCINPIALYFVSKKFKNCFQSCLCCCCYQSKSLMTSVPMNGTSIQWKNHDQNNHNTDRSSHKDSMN
Assay: Endothelin binding inhibition, Binding Test #1: competition with 125I-ET-1 for ETA receptors on TE 671 cell membranes
Settings: incubation at 24° C. (values marked †)

IC50: 1.71 nM
Structure (SMILES): Cc1cc(C)c(NC(=O)c2sccc2S(=O)(=O)Nc2onc(C)c2Cl)c(C)c1O [N-(4-chloro-3-methyl-5-isoxazolyl)-2-(3-hydroxy-2,4,6-trimethylphenylaminocarbonyl)thiophene-3-sulfonamide]
